Reference: patent publication US8791046B2, “Crystalline modification of fipronil” (BASF SE, priority 2006, dated 2014)

How the values were obtained:
[1] = Stability of the acetone solvate crystal form at ambient conditions; type: physicochemical; conditions: co-crystallized acetone solvent is volatile at ambient conditions
[2] = Solubility and dissolution rate in solvents; type: physicochemical; conditions: in most solvents

Substance: fipronil [crystalline modification IV]
- stability of the crystalline modification [1]: remarkable stability
- dissolution rate [2]: remarkable high
- solubility [2]: remarkable high
